Test results published in patent US4243678A, “Acylhydrocarbylaminoalkanoic acids, compositions and uses” (Byk Gulden Lomberg Chemische Fabrik GmbH, priority 1977, dated 1981).
Like-named read-outs stand apart in the source and are kept apart here.

Legend:
[1] = Determination of toxicity (lethal action on the mouse after intraperitoneal application); type: in vivo; conditions: in vivo, ip
Method: The toxicity investigations are carried out on female NMRI mice (body weight 22 to 26 g). The animals (5 animals per dose) are given food and water ad lib. Different doses of the substances are administered intraperitoneally. The duration of observation is 14 days. The LD50, i.e. the dose at which 50% of the animals die, is determined graphically from the dose/effect curve.

[2] = Influence on pancreatic secretion of the narcotized rat; type: in vivo, rat (male Sprague-Dawley); conditions: in vivo, LD50 mouse i.p. / ED50 rat i.d.
From the text: (§1) Male Sprague-Dawley rats (body weight from 250 to 300 g) are narcotized with 1.2 g/kg urethane i.m. Then the abdominal cavity is opened medially, the bile duct is ligatured shortly above the place where it leads into the duodenum and also near to the hepatic duct, and both sections are catheterized towards the liver.
(§2) As in the rat all the pancreatic ducts lead out into the central section of the bile duct; it is possible in this way to discharge the pancreatic secretion separately from the distal (ligatured) section and the bile separately from the proximal section of the bile duct.
(§3) The quantities of pancreatic juice and bile juice obtained are measured at intervals of 30 minutes over a period from 2 hours before to 3 hours after the intraduodenal (V. jugularis externa) administration of the compounds to be tested (quantity of liquid administered 5 ml/kg).
(§4) The body temperature of the animals is maintained at 36° to 38° C. by means of electric blankets and radiation; the temperature is monitored rectally.
(§5) The liquid volumes of the 30-minute fractions after the administration of the substance are related in each case to the quantity of bile or pancreatic juice secreted prior to the application of the substance (=100%, mean of the last two measurements). The maximum percentage increase in the pancreatic or bile secretion is represented in dependence upon dose, and from this the ED50 is determined by interpolation.

pancreatic secretion = experiment: as above; type: in vivo, rat (male Sprague-Dawley); conditions: 0.5 h
From the text: as §1, §2, §3, §4, §5

[3] = Antihepatotoxic effect: duration of hexobarbital sleep of the rat after liver damage by CCl4; conditions: rat, in vivo
Method: (§6) The compounds to be tested are administered 1 hour prior to the administration of CCl4 orally in a liquid volume of 10 ml/kg.
(§7) The antihepatotoxic effect of the compounds to be tested (sodium salts in aqueous solution) is determined by the reduction of the prolongation of sleeping period caused by the CCl4 liver cell damage in the groups treated, as compared with the prolongation of the sleeping period of the CCl4 control group (=100%). […]

liver damage by CCl4 = experiment: as above; conditions: Rattus norvegicus, po; for ED25: read-out: ED25 antihepatotoxic effect (shortens hexobarbital narcosis by 25%)
Method: as §6, §7

[4] = system: glucose formation from lactate and pyruvate in isolated perfused liver; experiment: Inhibition of the formation of glucose from lactate and pyruvate in the isolated perfused rat liver; set-up: species or system rat (male Sprague-Dawley); conditions: for Glucose formation, % change: isolated perfused liver of fasting rats; for ED50 inhibition of formation of glucose from lactate and pyruvate: from 4 concentrations, 0.02 to 1.00 mmol/liter
Method: For this purpose young male Sprague-Dawley rats (160 to 200 g) are used. The rats are kept in cages of up to 5 animals in a temperature-controlled room (23° C.) with a fixed day/night rhythm (12/12 hours).
Food is withheld from the animals for from 20 to 22 hours prior to the operation. They are allowed to take water ad lib. The operation and the perfusion of the liver are carried out using the technique of R. Scholz et al. [Eur. J. Biochem. 38 (1973) 64 to 72]. The perfusion liquid used is Krebs-Henseleit bicarbonate buffer (pH 7.4), which is saturated with an oxygen/carbon dioxide mixture (95/5) and contains 1.6 mmol/liter of L-lactate and 0.2 mmol/liter of pyruvate. The perfusion liquid is pumped into the liver via a cannula inserted into the portal vein. The effluent perfusion liquid is collected via a cannula inserted into the Vena cava. The liver is perfused for about 2 hours. The test compounds are infused for 16 minutes each from the 32nd to the […] after the perfusion in increasing concentrations (0.02 to 1.00 mmol/liter).
Samples of the effluent perfusion liquid are collected at one-minute intervals and analyzed for glucose, lactate and pyruvate (using standard enzymatic methods). The percentages shown in Table VIII relate to the condition occurring before and after the administration of the compounds, the changes caused solely by lactate and pyruvate being set as being equal to 100%.

[5] = Table I, read-out: TQ (LD50/ED50), pancreatic secretion
[6] = Rattus norvegicus, read-out: ED50 pancreatic secretion (dose which brings about an increase in the pancreatic secretion by a maximum of 50%)
[7] = TQ (LD50/ED50), antihepatotoxic effect, LD50 mouse i.p. / ED50 rat p.o., Table III
[8] = read-out: ED50 antihepatotoxic effect (dose which shortens the hexobarbital narcosis by 50%)
[9] = 0.2 mmole/liter in the perfusate, Table VIII
[10] = TQ LD50/ED25, antihepatotoxic effect, LD50 mouse i.p. / ED25 rat p.o., Table V
[11] = read-out: ED50 antihepatotoxic effect (shortens hexobarbital narcosis by 50%)
[12] = Table VII, read-out: TQ [LD50/ED50], pancreatic secretion
[13] = narcotized rat, i.d., liquid volume, 30 min fraction, Table VII, read-out: ED50 pancreatic secretion (dose which brings about an increase in pancreatic secretion of a maximum of 50%)
[14] = TQ LD50/ED25, antihepatotoxic effect, LD50 mouse i.p. / ED25 rat p.o., Table XI
[15] = TQ LD50/ED50, antihepatotoxic effect, LD50 mouse i.p. / ED50 rat p.o., Table XI
[16] = Table X, read-out: TQ LD50/ED50, pancreatic secretion
[17] = narcotized rat, i.d., liquid volume, 30 minute fraction, Table X, read-out: ED50 pancreatic secretion (dose which brings about an increase in pancreatic secretion by a maximum of 50%)

## O=C(O)CCCN(C(=O)c1ccc(Cl)cc1)C12CC3CC(CC(C3)C1)C2 [Serial No. 6, N-(p-chloro)benzoyl-4-(1-adamantyl)aminobutyric acid]
[1]; mouse, Table I
  LD50 at 336 h: 200 mg/kg
[2]; [5]
  selectivity ratio: 200
Pancreatic secretion; [6]
  ED50: 1 mg/kg

## CC(C)(C)CC(C)(C)N(CCCC(=O)O)C(=O)c1ccc(Cl)cc1 [Serial No. 7, N-(p-chloro)benzoyl-4-[(1,1,3,3-tetramethylbutyl)amino]butyric acid]
[1]; mouse, Table I
  LD50 at 336 h: 220 mg/kg
[2]; [5]
  selectivity ratio: 110
Pancreatic secretion; [6]
  ED50: 2 mg/kg

## C#CC1(N(CCCC(=O)O)C(C)=O)CCCCC1 [Serial No. 8, N-acetyl-4-[(1-ethynylcyclohexyl-1)-amino]butyric acid]
[1]; mouse, Table I
  LD50 at 336 h: > 1000 mg/kg
[2]; [5]
  selectivity ratio: > 100
Pancreatic secretion; [6]
  ED50: 10 mg/kg

## O=C(O)CCCN(C(=O)c1ccc(Cl)cc1)C(c1ccccc1)c1ccccc1 [Serial No. 12, N-(p-chloro)benzoyl-4-benzhydrylaminobutyric acid]
[1]; mouse, Table I
  LD50 at 336 h: 250 mg/kg
[3]; [7]
  selectivity ratio: 25
Liver damage by CCl4; [8]
  ED50: 10 mg/kg
[2]; [5]
  selectivity ratio: ~2500
Pancreatic secretion; [6]
  ED50: ~0.1 mg/kg

## CC(c1ccccc1)N(CCCCCC(=O)O)C(=O)c1ccc(Cl)cc1 (centres unmarked) [Serial No. 13, N-(p-chloro)benzoyl-6-(1-phenylethylamino)caproic acid]
[1]; mouse, Table I
  LD50 at 336 h: 220 mg/kg
[2]; [5]
  selectivity ratio: 110
Pancreatic secretion; [6]
  ED50: 2 mg/kg

## O=C(O)CCCN(Cc1ccccc1)C(=O)c1ccc(Cl)cc1 [Serial No. 15, N-(p-chloro)benzoyl-4-benzylaminobutyric acid]
[1]; mouse, Table I
  LD50 at 336 h: 350 mg/kg
[2]; [5]
  selectivity ratio: 233
Pancreatic secretion; [6]
  ED50: 1.5 mg/kg

## O=C(O)CCCN(C(=O)c1ccc(Cl)cc1)C1CCCCCCC1 [Serial No. 18, N-(p-chloro)benzoyl-4-cyclooctylaminobutyric acid]
[1]; mouse, Table I
  LD50 at 336 h: 150 mg/kg
[3]; [7]
  selectivity ratio: 18.8
Liver damage by CCl4; [8]
  ED50: 8 mg/kg
[2]; [5]
  selectivity ratio: 60
Pancreatic secretion; [6]
  ED50: 2.5 mg/kg

## O=C(O)CCCCN(C(=O)c1ccc(Cl)cc1)c1ccccc1-c1ccccc1 [Serial No. 28, 5-[p-chloro-N-(biphenyl-2-yl)benzamido]valeric acid]
[4]; [9]
  Glucose formation, % change: -89%
[4]; Table VIII
  ED50 inhibition of formation of glucose from lactate and pyruvate: 25 µg/mL
[1]; mouse i.p., Table V
  LD50 at 336 h: 140 mg/kg
[3]; [10]
  selectivity ratio: 46.7
[3]; TQ LD50/ED50, antihepatotoxic effect, LD50 mouse i.p. / ED50 rat p.o., Table V
  selectivity ratio: 11.7
Liver damage by CCl4
  ED25: 3 mg/kg
Liver damage by CCl4; [11]
  ED50: 12 mg/kg

## O=C(O)CCCCCN(C(=O)c1ccc(Cl)cc1Cl)c1ccccc1-c1ccccc1 [Serial No. 29, 6-[2,4-dichloro-N-(biphenyl-2-yl)benzamido]caproic acid]
[4]; [9]
  Glucose formation, % change: -93%
[4]; Table VIII
  ED50 inhibition of formation of glucose from lactate and pyruvate: 23 µg/mL
[1]; mouse i.p., Table VII
  LD50 at 336 h: ~250 mg/kg
[2]; [12]
  selectivity ratio: ~147
Pancreatic secretion; [13]
  ED50: 1.7 mg/kg

## COc1ccc(Cl)cc1C(=O)N(CCCC(=O)O)c1ccccc1-c1ccccc1 [Serial No. 33, 4-[2-methoxy-5-chloro-N-(biphenyl-2-yl)benzamido]butyric acid]
[1]; mouse i.p., Table VII
  LD50 at 336 h: 170 mg/kg
[2]; [12]
  selectivity ratio: 85
Pancreatic secretion; [13]
  ED50: 2 mg/kg

## CC(C)C(=O)N(CCCCCC(=O)O)c1ccccc1-c1ccccc1 [Serial No. 34, 6-[N-(biphenyl-2-yl)isobutyramido]caproic acid]
[1]; mouse i.p., Table V
  LD50 at 336 h: 260 mg/kg
[3]; [10]
  selectivity ratio: 8.7
Liver damage by CCl4
  ED25: < 30 mg/kg

## O=C(O)CCCN(C(=O)c1ccc(Cl)cc1)c1ccc(C2CCCCC2)cc1 [Serial No. 37, 4-[p-chloro-N-(1',2',3',4',5',6'-hexahydrobiphenyl-4-yl)benzamido]butyric acid]
[1]; mouse i.p., Table V
  LD50 at 336 h: ~150 mg/kg
[3]; [10]
  selectivity ratio: ≥ 15
Liver damage by CCl4
  ED25: ≤ 10 mg/kg
[2]; [12]
  selectivity ratio: ~100
Pancreatic secretion; [13]
  ED50: 1.5 mg/kg

## CC(=O)N(CCCC(=O)O)c1cccc2ccccc12 [Serial No. 39, 4-[N-(α-naphthyl)acetamido]butyric acid]
[1]; mouse i.p., Table X
  LD50 at 336 h: 750 mg/kg
[3]; [14]
  selectivity ratio: > 75
[3]; [15]
  selectivity ratio: 15
Liver damage by CCl4
  ED25: < 10 mg/kg
Liver damage by CCl4; [11]
  ED50: 50 mg/kg
[2]; [16]
  selectivity ratio: ~500
Pancreatic secretion; [17]
  ED50: ~1.5 mg/kg

## O=C(O)CCCN(C(=O)c1ccc(Cl)cc1Cl)c1cccc2ccccc12 [Serial No. 41, 4-{2,4-dichloro-[N-(α-naphthyl)]benzamido}butyric acid]
[1]; mouse i.p., Table X
  LD50 at 336 h: 240 mg/kg
[3]; [14]
  selectivity ratio: 24
[3]; [15]
  selectivity ratio: 9.2
Liver damage by CCl4
  ED25: 10 mg/kg
Liver damage by CCl4; [11]
  ED50: 26 mg/kg
[2]; [16]
  selectivity ratio: 32
Pancreatic secretion; [17]
  ED50: 7.5 mg/kg

## COc1ccc(Cl)cc1C(=O)N(CCCC(=O)O)c1cccc2ccccc12 [Serial No. 44, 4-{5-chloro-2-methoxy-[N-(α-naphthyl)]benzamido}butyric acid]
[1]; mouse i.p., Table X
  LD50 at 336 h: 270 mg/kg
[3]; [14]
  selectivity ratio: ~9
Liver damage by CCl4
  ED25: ~30 mg/kg
[2]; [16]
  selectivity ratio: > 270
Pancreatic secretion; [17]
  ED50: < 1 mg/kg

## COc1ccc2cccc(N(CCCC(=O)O)C(=O)c3ccc(Cl)cc3)c2c1 [Serial No. 46, 4-{p-chloro-[N-(7-methoxy-1-naphthyl)]benzamido}butyric acid]
[1]; mouse i.p., Table X
  LD50 at 336 h: 120 mg/kg
[3]; [14]
  selectivity ratio: 17.1
[3]; [15]
  selectivity ratio: 7.5
Liver damage by CCl4
  ED25: 7 mg/kg
Liver damage by CCl4; [11]
  ED50: 16 mg/kg
[2]; [16]
  selectivity ratio: 400
Pancreatic secretion; [17]
  ED50: 0.3 mg/kg

## O=C(O)CCCCN(C(=O)c1ccc(Cl)cc1)c1cccc2ccccc12 [Serial No. 47, 5-{p-chloro-[N-(α-naphthyl)]benzamido}valeric acid]
[4]; 0.2 mmol/liter in the perfusate, Table XIII
  Glucose formation, % change: -86%
[4]; Table XIII
  ED50 inhibition of formation of glucose from lactate and pyruvate: 31 µg/mL
[1]; mouse i.p., Table X
  LD50 at 336 h: 170 mg/kg
[2]; [16]
  selectivity ratio: 85
Pancreatic secretion; [17]
  ED50: 2 mg/kg

## O=C(O)CCCN(C(=O)c1cccc(C(F)(F)F)c1)c1cccc2ccccc12 [compound 42]
[1]; mouse i.p., Table X
  LD50 at 336 h: 160 mg/kg
[2]; [16]
  selectivity ratio: > 160
Pancreatic secretion; [17]
  ED50: < 1 mg/kg

## O=C(O)CCCCCN(C(=O)c1ccc(Cl)cc1)c1cccc2ccccc12 [compound 48]
[1]; mouse i.p., Table X
  LD50 at 336 h: 160 mg/kg
[3]; [14]
  selectivity ratio: ~22.9
Liver damage by CCl4
  ED25: ~7 mg/kg
[2]; [16]
  selectivity ratio: ~160
Pancreatic secretion; [17]
  ED50: ~1 mg/kg

## CC(=O)N(CCCC(=O)O)C1CCCc2ccccc21 (centres unmarked) [compound 49]
[1]; mouse i.p., Table X
  LD50 at 336 h: > 200 mg/kg
[3]; [14]
  selectivity ratio: > 20
Liver damage by CCl4
  ED25: < 10 mg/kg
[2]; [16]
  selectivity ratio: ≥ 40
Pancreatic secretion; [17]
  ED50: ~5 mg/kg
